Measurements taken from PubChem BioAssay AID330 (DTP/NCI, 2004).
Several values for one entry are separate records, joined by “and”; a condition that tells them apart may be missing. Equal values may be shown once. Toxic doses and inconclusive results are not listed. The calls were made as follows: active = survival T/C of 150% or more; inactive = T/C below 125% in these data.

Tested on: P388 leukemia ip, CD2F1 mice, survival T/C
Test: NCI In Vivo Anticancer Drug Screen. Data for tumor model P388 Leukemia (intraperitoneal) in CD2F1 (CDF1) mice
Conditions: endpoint: median survival time, higher = longer survival
In short: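 Mice carrying the transplanted tumor received test compound or vehicle. Survival was recorded in each group, and the value is the treated-group measurement divided by that of the vehicle-treated control group.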

[1] = dose: 50.0 mg/kg/injection, schedule: Q01DX009 (ip), vehicle: saline
[2] = dose: 100.0 mg/kg/injection, schedule: Q01DX009 (ip), vehicle: saline
[3] = dose: 200.0 mg/kg/injection, schedule: Q01DX009 (ip), vehicle: saline
[4] = dose: 12.5 mg/kg/injection, schedule: Q01DX005 (ip), vehicle: saline with Tween-80
[5] = dose: 25.0 mg/kg/injection, schedule: Q01DX005 (ip), vehicle: saline with Tween-80
[6] = dose: 50.0 mg/kg/injection, schedule: Q01DX005 (ip), vehicle: saline with Tween-80
[7] = dose: 100.0 mg/kg/injection, schedule: Q01DX005 (ip), vehicle: saline with Tween-80
[8] = dose: 60.0 mg/kg/injection, schedule: Q01DX005 (ip), vehicle: saline with Tween-80
[9] = dose: 120.0 mg/kg/injection, schedule: Q01DX005 (ip), vehicle: saline with Tween-80
[10] = dose: 240.0 mg/kg/injection, schedule: Q01DX005 (ip), vehicle: saline with Tween-80
[11] = dose: 25.0 mg/kg/injection, schedule: Q01DX009 (ip), vehicle: saline with Tween-80
[12] = dose: 50.0 mg/kg/injection, schedule: Q01DX009 (ip), vehicle: saline with Tween-80
[13] = dose: 100.0 mg/kg/injection, schedule: Q01DX001 (ip), vehicle: Klucel (hydroxypropylcellulose) (HPC)
[14] = dose: 200.0 mg/kg/injection, schedule: Q01DX001 (ip), vehicle: Klucel (hydroxypropylcellulose) (HPC)
[15] = dose: 400.0 mg/kg/injection, schedule: Q01DX001 (ip), vehicle: Klucel (hydroxypropylcellulose) (HPC)
[16] = dose: 100.0 mg/kg/injection, schedule: Q01DX009 (ip), vehicle: saline with Tween-80
[17] = dose: 200.0 mg/kg/injection, schedule: Q01DX009 (ip), vehicle: saline with Tween-80

Measured: T/C

O=S(=O)(c1ccc(N=Cc2cccs2)cc1)c1ccc(N=Cc2cccs2)cc1
inactive: [1] 99 % of control | [2] 98 % of control | [3] 91 % of control and 95 % of control

COc1ccc(/C=C/C(C)=N/NC(N)=S)cc1OC
inactive: [4] 104 % of control | [5] 106 % of control | [6] 105 % of control and 112 % of control | [7] 93 % of control

O=[N+]([O-])c1cc([N+](=O)[O-])c(N2CC2)cc1C1=NCCO1
inactive: dose: 50.0 mg/kg/injection, schedule: Q01DX009 (ip), vehicle: Klucel (hydroxypropylcellulose) (HPC) 98 % of control | dose: 100.0 mg/kg/injection, schedule: Q01DX009 (ip), vehicle: Klucel (hydroxypropylcellulose) (HPC) 110 % of control

CC(C)NCC(O)c1ccccc1Cl (stereo not drawn)
inactive: [4] 100 % of control | [5] 104 % of control | [6] 100 % of control and 90 % of control

COc1ccc(C(c2cc3c(cc2O)OCO3)N2CCOCC2)cc1 (stereo not drawn)
inactive: [8] 118 % of control | [9] 109 % of control and 119 % of control | [10] 120 % of control

C/C(=N\N=C(/[Se])N1CCN(c2ccc(F)cc2)CC1)c1ccccn1
inactive: dose: 100.0 mg/kg/injection, schedule: Q04DX003 (ip), vehicle: Klucel (hydroxypropylcellulose) (HPC) 101 % of control | dose: 200.0 mg/kg/injection, schedule: Q04DX003 (ip), vehicle: Klucel (hydroxypropylcellulose) (HPC) 108 % of control | dose: 400.0 mg/kg/injection, schedule: Q04DX003 (ip), vehicle: Klucel (hydroxypropylcellulose) (HPC) 100 % of control

CC1CCn2c(nc3c2c(=O)n(C)c(=O)n3C)N1 (stereo not drawn)
inactive: [8] 102 % of control and 100 % of control | [9] 93 % of control and 94 % of control | [10] 93 % of control and 91 % of control

NCCc1nc(-c2nc(C(=O)Nc3ccccc3)cs2)cs1
inactive: dose: 12.5 mg/kg/injection, schedule: Q01DX009 (ip), vehicle: distilled water + Tween-80 100 % of control | dose: 25.0 mg/kg/injection, schedule: Q01DX009 (ip), vehicle: distilled water + Tween-80 103 % of control | dose: 50.0 mg/kg/injection, schedule: Q01DX009 (ip), vehicle: distilled water + Tween-80 103 % of control | dose: 100.0 mg/kg/injection, schedule: Q01DX009 (ip), vehicle: distilled water + Tween-80 100 % of control

CC1C(C(=O)NCCc2ccccc2)CC2CCCCN21 (stereo not drawn)
inactive: [8] 102 % of control | [9] 96 % of control

CC(=Nc1ccccc1)Nc1ccccc1.[Cu+2]
inactive: dose: 12.5 mg/kg/injection, schedule: Q01DX009 (ip), vehicle: saline with Tween-80 109 % of control | [11] 105 % of control | [12] 105 % of control

Fc1c(F)c(C(F)(F)F)c(F)c(F)c1-n1nnc(-c2ccccc2)n1
inactive: dose: 50.0 mg/kg/injection, schedule: Q01DX005 (ip), vehicle: Klucel (hydroxypropylcellulose) (HPC) 99 % of control | dose: 100.0 mg/kg/injection, schedule: Q01DX005 (ip), vehicle: Klucel (hydroxypropylcellulose) (HPC) 96 % of control | dose: 200.0 mg/kg/injection, schedule: Q01DX005 (ip), vehicle: Klucel (hydroxypropylcellulose) (HPC) 100 % of control

CCCCCCCCCCCC(=O)NCCCCCC(=O)NC1C(C)OC(Nc2ncnc3nc[nH]c23)C(O)C1O (stereo not drawn)
inactive: dose: 0.5 mg/kg/injection, schedule: Q01DX009 (ip), vehicle: water 99 % of control | dose: 1.0 mg/kg/injection, schedule: Q01DX009 (ip), vehicle: water 99 % of control | dose: 2.0 mg/kg/injection, schedule: Q01DX009 (ip), vehicle: water 115 % of control | dose: 4.0 mg/kg/injection, schedule: Q01DX009 (ip), vehicle: water 115 % of control | dose: 8.0 mg/kg/injection, schedule: Q01DX009 (ip), vehicle: distilled water + Tween-80 87 % of control | dose: 8.0 mg/kg/injection, schedule: Q01DX009 (ip), vehicle: water 117 % of control | dose: 16.0 mg/kg/injection, schedule: Q01DX009 (ip), vehicle: distilled water + Tween-80 89 % of control | dose: 32.0 mg/kg/injection, schedule: Q01DX009 (ip), vehicle: distilled water + Tween-80 114 % of control | dose: 64.0 mg/kg/injection, schedule: Q01DX009 (ip), vehicle: distilled water + Tween-80 123 % of control

COc1c(C)c(=O)n2c3ccccc3n(C)c2c1C#N
inactive: [8] 103 % of control | [9] 107 % of control | [10] 99 % of control

C/C=C/CC1(C)N=C1c1ccccc1 (stereo not drawn)
inactive: [13] 99 % of control | [14] 99 % of control | [15] 102 % of control

COc1ccc(C(C)N(C)C)cc1 (stereo not drawn)
inactive: dose: 50.0 mg/kg/injection, schedule: Q01DX001 (ip), vehicle: other 101 % of control | dose: 100.0 mg/kg/injection, schedule: Q01DX001 (ip), vehicle: other 99 % of control and 103 % of control | dose: 200.0 mg/kg/injection, schedule: Q01DX001 (ip), vehicle: other 98 % of control

CC1=CC=c2ccc3c(c2[N-]1)[N-]C(C)=CC=3.CC1=CC=c2ccc3c(c2[N-]1)[N-]C(C)=CC=3.O=[N+]([O-])O.[Cu+]
inactive: dose: 6.25 mg/kg/injection, schedule: Q04DX002 (ip), vehicle: suspension in saline 101 % of control | dose: 12.5 mg/kg/injection, schedule: Q04DX002 (ip), vehicle: suspension in saline 103 % of control

CS(=O)Cc1cc(-c2ccccc2)no1 (stereo not drawn)
inactive: [8] 99 % of control | [9] 104 % of control | [10] 97 % of control

Nc1ccc(N)cc1
inactive: dose: 5.0 mg/kg/injection, schedule: Q01DX009 (ip), vehicle: saline with Tween-80 95 % of control | dose: 5.0 mg/kg/injection, schedule: Q04DX003 (ip), vehicle: saline with Tween-80 104 % of control | dose: 10.0 mg/kg/injection, schedule: Q01DX009 (ip), vehicle: saline with Tween-80 100 % of control | dose: 10.0 mg/kg/injection, schedule: Q04DX003 (ip), vehicle: saline with Tween-80 104 % of control | dose: 20.0 mg/kg/injection, schedule: Q01DX009 (ip), vehicle: saline with Tween-80 100 % of control | dose: 20.0 mg/kg/injection, schedule: Q04DX003 (ip), vehicle: saline with Tween-80 104 % of control

O=C(O)c1c[nH]c2cc(OCCOc3ccccc3)ccc2c1=O
inactive: [1] 107 % of control | [2] 107 % of control | [3] 100 % of control

CC1(C)NC(=S)N(O)C1(C)C
inactive: [1] 111 % of control | [2] 98 % of control

Cn1c(=O)c2nc(-c3cccnc3)cnc2n(C)c1=O
inactive: [13] 105 % of control | [14] 105 % of control | [15] 105 % of control

O=S(=O)(O)C(O)C(F)(F)C(F)(F)C(F)(F)F (stereo not drawn)
inactive: dose: 60.0 mg/kg/injection, schedule: Q01DX005 (ip), vehicle: saline 98 % of control | dose: 120.0 mg/kg/injection, schedule: Q01DX005 (ip), vehicle: saline 94 % of control | dose: 240.0 mg/kg/injection, schedule: Q01DX005 (ip), vehicle: saline 99 % of control

CC(C)CCC1(CCBr)C(=O)NC(=Nc2ccccc2)NC1=O (stereo not drawn)
inactive: [11] 96 % of control | [12] 98 % of control | [16] 100 % of control | [17] 100 % of control

CC(=O)O.Cl.NC1C([O-])OC(CO)C(O)C1O.O=C1OC(C(O)CO)C([O-])=C1[OH2+].[Cu+2] (stereo not drawn)
inactive: dose: 3.75 mg/kg/injection, schedule: Q01DX005 (ip), vehicle: saline with Tween-80 107 % of control | dose: 7.5 mg/kg/injection, schedule: Q01DX005 (ip), vehicle: saline with Tween-80 100 % of control | dose: 15.0 mg/kg/injection, schedule: Q01DX005 (ip), vehicle: saline with Tween-80 98 % of control and 97 % of control | [8] 108 % of control

O=C1OC(=O)C2C3c4ccccc4C(c4ccccc43)C12 (stereo not drawn)
inactive: [6] 115 % of control and 117 % of control | [7] 110 % of control and 121 % of control | dose: 200.0 mg/kg/injection, schedule: Q01DX005 (ip), vehicle: saline with Tween-80 120 % of control and 122 % of control | dose: 400.0 mg/kg/injection, schedule: Q01DX005 (ip), vehicle: saline with Tween-80 121 % of control

O=C1CN(c2ccccc2)C(=O)CN1Nc1ccccc1
inactive: [12] 93 % of control | [16] 93 % of control

NOCc1ccc(CON)cc1
inactive: [12] 95 % of control | [16] 95 % of control | [17] 91 % of control

O=C(O)C1CCC2(CC1)SCC1(CS2)CSC2(CCC(C(=O)O)CC2)SC1 (stereo not drawn)
inactive: dose: 7.5 mg/kg/injection, schedule: Q01DX009 (ip), vehicle: saline with Tween-80 104 % of control | dose: 15.0 mg/kg/injection, schedule: Q01DX009 (ip), vehicle: saline with Tween-80 99 % of control | dose: 30.0 mg/kg/injection, schedule: Q01DX009 (ip), vehicle: saline with Tween-80 107 % of control
